Data published in the PolyMetriX glass transition set.
± gives the standard deviation of the reports.

Structure (SMILES)	glass transition temperature [°C]
*CCCCCCCCOc1ccc(/C=C/c2cc(OCCCCCCCC)c(/C=C/c3ccc(O*)cc3)cc2OCCCCCCCC)cc1 (repeat unit)	130.00
*Oc1ccc(NC(=O)c2cc(C(=O)Nc3ccc(*)cc3)cc(C(F)(F)C(F)(F)C(F)(F)C(F)(F)C(F)(F)C(F)(F)C(F)(F)C(F)(F)F)c2)cc1 (repeat unit)	230.00
*Oc1ccc(Oc2ccc(/C=N/CCCCCC/N=C/c3ccc(*)cc3)cc2)cc1 (repeat unit)	111.00
*c1ccc(Oc2ccc(-n3c(=O)c4cc5c(=O)n(-c6ccc(Oc7ccc(-c8nc9cc%10sc(*)nc%10cc9s8)cc7)cc6)c(=O)c5cc4c3=O)cc2)cc1 (repeat unit)	400.00
*OC(=O)C(C)NC(=O)CCCCCCCCC(=O)NC(C)C(=O)OC1COC2C(*)COC12 (repeat unit)	57.00
*Oc1ccc(/C(=C/c2ccc(-c3ccc(/C=C(\c4ccccc4)c4ccc(OC(=O)CCCCCCCCC(*)=O)cc4)cc3)cc2)c2ccccc2)cc1 (repeat unit)	111.00
*Oc1cccc(Oc2ccc(C(=O)c3ccc(P(=O)(c4ccccc4)c4ccc(C(=O)c5ccc(*)cc5)cc4)cc3)cc2)c1 (repeat unit)	201.00
*Oc1ccc(S(=O)(=O)c2ccc(Oc3ccc(C45CC6CC(CC(c7ccc(*)cc7)(C6)C4)C5)cc3)cc2)cc1 (repeat unit)	242.00
*CC(*)(CC(=O)OC1CCCCC1)C(=O)OC1CCCCC1 (repeat unit)	142.00
*CC(*)Cl (repeat unit) [Poly(vinyl chloride)]	78.42 ± 2.2
*c1ccc(Oc2c(C)cc(C(c3cc(C)c(Oc4ccc(-n5c(=O)c6cc7c(=O)n(*)c(=O)c7cc6c5=O)cc4)c(C)c3)c3cccc4ccccc34)cc2C)cc1 (repeat unit)	315.00
*Oc1ccc(C2(c3ccc(OC(=O)c4ccc(C(*)=O)cc4)c(C)c3)CCC3CCCCC3C2)cc1C (repeat unit)	247.00
*Oc1ccc(-c2ccc(Oc3ccc(C(=O)c4ccc5cc(C(=O)c6ccc(*)cc6)ccc5c4)cc3)cc2)cc1 (repeat unit)	195.00
*CCCCCCCCCCCCN1C(=O)c2cccc3c(-c4ccc5c6c(cccc46)C(=O)N(CCCCCCCCCCCCN4C(=O)c6ccc7c8ccc9c%10c(ccc(c%11ccc(c6c7%11)C4=O)c%108)C(=O)N(*)C9=O)C5=O)ccc(c23)C1=O (repeat unit)	210.00
*Oc1ccc(S(=O)(=O)c2ccc(Oc3ccc(C4(c5ccc(*)c(C)c5)CCCCC4)cc3C)cc2)cc1 (repeat unit)	197.00
*CC(c1ccccc1)C1C(=O)N(c2ccc(Oc3ccccc3)cc2)C(=O)C1* (repeat unit)	194.00
*CCOC(=O)CCC(=O)OCCOC(=O)c1ccc(C(=O)O*)cc1 (repeat unit)	24.00
*Oc1ccc(C(C)(CC)c2ccc(OC(=O)OC3C(C)(C)C(OC(*)=O)C3(C)C)cc2)cc1 (repeat unit)	124.00
*CC(*)(C)C(=O)OC(OCC)C(F)(F)F (repeat unit)	60.00
*Oc1cccc(OC(=O)c2cccc(C(*)=O)c2)c1 (repeat unit)	147.00
*CC(*)c1cc(C(=O)Oc2ccc(OC)cc2)ccc1C(=O)Oc1ccc(OC)cc1 (repeat unit)	115.00

Structure (SMILES)	glass transition temperature [°C]
*CCOCCOCCN1C(=O)c2ccc(C(=O)Oc3ccc(OC(=O)c4ccc5c(c4)C(=O)N(*)C5=O)c(-c4ccccc4)c3)cc2C1=O (repeat unit)	105.00
*c1ccc2c(c1)C(=O)N(c1c(C(C)C)cc(Cc3cc(C(C)C)c(N4C(=O)c5ccc(C(*)(C(F)(F)F)C(F)(F)F)cc5C4=O)c(C(C)C)c3)cc1C(C)C)C2=O (repeat unit)	278.50
*C1c2cccc3cccc(c23)C1* (repeat unit)	250.00
*CCCCCCOc1ccc(C(=O)N(C(=O)c2ccc(O*)cc2)c2cc(C)cc(C)c2)cc1 (repeat unit)	75.00
*c1ccc(-c2ccc(-n3c(=O)c4cc5c(=O)n(*)c(=O)c5cc4c3=O)cc2OC)c(OC)c1 (repeat unit)	328.00
*c1ccc(Oc2ccc(C3(c4ccc(Oc5ccc(N6C(=O)c7ccc(Oc8ccc(C9(c%10ccc(Oc%11ccc%12c(c%11)C(=O)N(*)C%12=O)cc%10)CCCCCCCCCCC9)cc8)cc7C6=O)cc5)cc4)C4CC5CC(C4)CC3C5)cc2)cc1 (repeat unit)	262.00
*Oc1ccc(Oc2ccc(C(=O)c3ccc(*)cc3)cc2)cc1-c1cc(C(F)(F)F)cc(C(F)(F)F)c1 (repeat unit)	146.00
*Cc1ccc(C(C)(C)c2ccc(CN3C(=O)c4ccc(Oc5ccc6c(c5)C(=O)N(*)C6=O)cc4C3=O)o2)o1 (repeat unit)	116.00
*Oc1ccc(CC(NC(=O)CCc2ccc(OC(=O)CCC(*)=O)cc2)C(=O)OC(C)CC)cc1 (repeat unit)	75.00
*CC(COc1ccc(C(C)(c2ccccc2)c2ccc(O*)cc2)cc1)OC(=O)c1ccccc1 (repeat unit)	126.00
*C(=O)Nc1ccc(C(c2ccc(NC(=O)c3ccc4c(c3)C(=O)N(c3c(C)cc(-c5cc(C)c(N6C(=O)c7ccc(*)cc7C6=O)c6ccccc56)c5ccccc35)C4=O)cc2)(C(F)(F)F)C(F)(F)F)cc1 (repeat unit)	250.00
*CC(*)c1ccc(C(=O)N(C)C)cc1 (repeat unit)	125.00
*Oc1ccc(-c2ccc(Oc3ccc(Oc4ccc(Oc5ccc(*)cc5)cc4)cc3)c3ccccc23)c2ccccc12 (repeat unit)	147.00
*Oc1ccc(CC(NC(=O)CCc2ccc(OC(=O)CCCCCCC(*)=O)cc2)C(=O)OC(C)CC)cc1 (repeat unit)	46.00
*C(F)(F)C(*)(F)c1ccccc1 (repeat unit)	206.00
*CCCCOC(=O)c1ccc(-c2ccc(C(=O)O*)cc2)cc1 (repeat unit)	70.00
*Oc1ccc(CC(NC(=O)CCc2ccc(OC(=O)CC(C)CCC(*)=O)cc2)C(=O)OCCCC)cc1 (repeat unit)	35.00
*OC(=O)Oc1ccc(S(=O)(=O)c2ccc(OC(=O)OC3CC4CC(*)CC(C3)O4)cc2)cc1 (repeat unit)	184.00
*C(F)(F)C(*)(F)C(F)(F)C(F)(F)C(F)(F)C(F)(F)C(F)(F)F (repeat unit)	232.50
*C(=O)OCCN(CCOC(=O)c1ccc2c(c1)C(=O)N(c1c(C)cc(Cc3cc(C)c(N4C(=O)c5ccc(*)cc5C4=O)c(C)c3)cc1C)C2=O)c1ccc(/N=N/c2ccc([N+](=O)[O-])cc2)cc1 (repeat unit)	179.00
*CCCCCCCCCCC(=O)N(*)C (repeat unit)	-12.00

Structure (SMILES)	glass transition temperature [°C]
*ON(C(F)(F)F)C(F)(Cl)C(*)(F)F (repeat unit)	-50.00
*CCCCNC(=O)CC(=O)N* (repeat unit)	73.00
*c1ccc2c(c1)C(=O)N(c1cccc(Oc3ccc(C(c4ccc(Oc5cccc(N6C(=O)c7ccc(C(*)(C(F)(F)F)C(F)(F)F)cc7C6=O)c5)cc4)(C(F)(F)F)C(F)(F)F)cc3)c1)C2=O (repeat unit)	224.00
*C(=O)c1ccc2c(c1)C(=O)N(c1c(C)cc(Cc3cc(C)c(N4C(=O)c5ccc(*)cc5C4=O)c(C)c3)cc1C)C2=O (repeat unit)	320.00 ± 16
*OC(CCOc1ccccc1)CC(*)=O (repeat unit)	20.00
*Oc1ccc2ccc(Oc3ccc(C(=O)Nc4ccc(Oc5ccc(C(C)(C)c6ccc(C(C)(C)c7ccc(Oc8ccc(NC(=O)c9ccc(*)cc9)cc8)cc7)cc6)cc5)cc4)cc3)cc2c1 (repeat unit)	166.00
*CCC[Si](*)(C)c1ccc(N(C)C)cc1 (repeat unit)	6.50
*Oc1ccc(CC(NC(=O)CCc2ccc(OC(=O)COCCOCC(*)=O)cc2)C(=O)OCC)cc1 (repeat unit)	53.00
*C(CC(C)C)C(=O)Nc1ccc(Oc2ccc(NC(=O)NCC3(C)CC(NC(=O)Nc4ccc(Oc5ccc(NC(=O)C(CC(C)C)n6c(=O)c7cc8c(=O)n(*)c(=O)c8cc7c6=O)cc5)cc4)CC(C)(C)C3)cc2)cc1 (repeat unit)	147.50
*Oc1ccc(-c2ccc(OC(=O)CCCCCCCCCCCCC(*)=O)cc2)cc1 (repeat unit)	95.00
*[Si](*)(CCCCCC)c1ccccc1 (repeat unit)	-70.00
*OC(=O)c1cccc(OCCCCCCCCOc2cccc(C(=O)OC3COC4C(*)COC34)c2)c1 (repeat unit)	33.00
*Oc1ccc(S(=O)(=O)c2ccc(Oc3ccc(C(C)(C)c4ccc(Oc5ccc(C(=O)c6ccc(*)cc6)cc5)cc4)cc3)cc2)cc1 (repeat unit)	175.00
*Oc1ccc(C2(c3ccc(Oc4ccc(C(=O)Oc5ccc(C(C)(C)c6ccc(OC(=O)c7ccc(*)cc7)cc6)cc5)cc4)cc3)CCC(C(C)(C)C)CC2)cc1 (repeat unit)	144.00
*CCCCCCCCCCCCN1C(=O)c2ccc(Oc3ccc4c(c3)C(=O)N(*)C4=O)cc2C1=O (repeat unit)	70.00
*Nc1cc(NC(=O)c2ccc(C(*)=O)cc2)cc(C(=O)OCCOC(=O)/C=C/c2ccc(N(C)C)cc2)c1 (repeat unit)	198.00
*CC(*)C(=O)OCCOC (repeat unit)	-34.00
*CC1CC(*)C(OC(=O)CCCCCCCCCCOc2ccc(-c3ccc(C#N)cc3)cc2)C1OC(=O)CCCCCCCCCCOc1ccc(-c2ccc(C#N)cc2)cc1 (repeat unit)	14.50
*CC(*)C(=O)Nc1ccc2c(c1)C(=O)c1ccccc1C2=O (repeat unit)	128.00
*Oc1ccc(C2(c3ccc(OC(=O)CCCCCCCCC(*)=O)cc3)c3ccccc3-c3ccccc32)cc1 (repeat unit)	151.00
*CC(*)(C)C(=O)OCCCCCCN1CCN(c2ccc(/N=N/c3ccc([N+](=O)[O-])cc3)cc2)CC1 (repeat unit)	60.00
